Holding throughout (assay): relative viability (nuclei count vs DMSO), 5 days (fraction); higher = more cells survive
Compound in assay [1]: CS(=O)(=O)N1CCN(Cc2cc3nc(-c4cccc5[nH]ncc45)nc(N4CCOCC4)c3s2)CC1 [Pictilisib] + C[C@]1(O)C[C@@H](c2nc(-c3ccc4ccc(-c5ccccc5)nc4c3)c3c(N)nccn32)C1 [Linsitinib] (partner 1 µM)
In short, it runs like this: (§1)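 A single step with final 0.05% Triton X-100, 1% formaldehyde and 1 ug/ml Hoechst fixed the cells and stained nuclei 5 days after treatment. Lung cancer cell lines in 1536-well plates had been treated by pin tool the day after seeding with one drug alone or a fixed anchor-drug dose plus five library-drug doses (not always all listed) in √10 steps, and nuclei were counted on 4× images. Relative viability is the ratio of nuclei in treated wells to nuclei in vehicle wells, taken as the median of duplicate plates.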

Compound in assay [2]: NC1(c2ccc(-c3nc4ccn5c(=O)[nH]nc5c4cc3-c3ccccc3)cc2)CCC1 [MK-2206] + CC(C)C[C@H](NC(=O)[C@H](Cc1ccccc1)NC(=O)c1cnccn1)B(O)O [Bortezomib] (partner 0.002 µM)
An outline of the steps: as §1

Compound in assay [3]: NC1(c2ccc(-c3nc4ccn5c(=O)[nH]nc5c4cc3-c3ccccc3)cc2)CCC1 [MK-2206] + CC1(C)CCC(c2ccc(Cl)cc2)=C(CN2CCN(c3ccc(C(=O)NS(=O)(=O)c4ccc(N[C@H](CCN5CCOCC5)CSc5ccccc5)c(S(=O)(=O)C(F)(F)F)c4)cc3)CC2)C1 [Navitoclax] (partner 0.5 µM)
In short, it runs like this:
as §1

Compound in assay [4]: NC1(c2ccc(-c3nc4ccn5c(=O)[nH]nc5c4cc3-c3ccccc3)cc2)CCC1 [MK-2206] + COc1cccc2cc(-c3nc([C@H]4CC[C@H](C(=O)O)CC4)n4ncnc(N)c34)[nH]c12 [OSI-027] (partner 0.5 µM)
In short, it runs like this:
as §1

Compound in assay [5]: NC1(c2ccc(-c3nc4ccn5c(=O)[nH]nc5c4cc3-c3ccccc3)cc2)CCC1 [MK-2206] + O=C(CCCCCCC(=O)Nc1ccccc1)NO [Vorinostat] (partner 1 µM)
In short, it runs like this: as §1

As to UMC-11, the relative viability in assay [1] (first compound 0.02 µM) came to 0.973; in assay [1] (first compound 0.06325 µM), 1.03; in assay [1] (first compound 0.6325 µM) it was 1.07; in assay [1] (first compound 2 µM), 0.928; in assay [2] (first compound 0.01 µM), 0.668; in assay [2] (first compound 0.03162 µM), 0.793. Also, the relative viability is 0.852 in assay [2] (first compound 0.3162 µM); 0.389 in assay [2] (first compound 1 µM); 0.309 in assay [3] (first compound 0.01 µM); 0.327 in assay [3] (first compound 0.03162 µM); 0.344 in assay [3] (first compound 0.3162 µM); 0.29 in assay [3] (first compound 1 µM). For the same cell line, the relative viability turned out to be 0.491 in assay [4] (first compound 0.01 µM); 0.567 in assay [4] (first compound 0.03162 µM); 0.46 in assay [4] (first compound 0.3162 µM); 0.521 in assay [4] (first compound 1 µM); 0.388 in assay [5] (first compound 0.01 µM); 0.365 in assay [5] (first compound 0.03162 µM). Moreover, the relative viability in assay [5] (first compound 0.3162 µM) came out at 0.416; in assay [5] (first compound 1 µM), 0.379.

The record behind these values is the supplement of paper PMC10307832.
